Assay results from patent US7446091B2, “Methods and preparations for curing clinically ill patients” (Novo Nordisk A/S, priority 2000, dated 2008).
Where “and” joins values, the source holds several entries; their conditions need not be identical. Identical values can stand only once.

How the values were obtained:
[1] = tested on: mechanically ventilated, adult patients admitted to the intensive care unit (ICU); assay: Example 2: glycemia control (whole blood glucose); type: in vivo
Method: A blood sample was taken upon ICU admission and daily at 06:00 h until discharge from ICU or death. On-admission and daily morning, whole blood glucose level as well as daily maximal and minimal glycemia were analysed. Analyses on the 06:00 h sample also included clinical chemistry, hematology and markers of inflammation.

[2] = tested on: patients treated in the ICU; assay: Example 1: prospective clinical study, weekly EMG screening for CIPNP in long-stay ICU patients; type: in vivo, human; conditions: for CIPNP-free time on the ICU: long-stay patients
Method: Between Feb. 2 and Apr. 25, 2000, 400 patients were included in the study. […] All other treatments, including feeding regimens, were according to standing orders currently applied within the ICU. Exclusion criteria were age <18y, pregnancy and not being intubated at admission.
When patients were still treated in the ICU after 7 days, a weekly EMG examination was performed to screen for the presence of CIPNP. The EMGs were always interpreted by the same expert in electrophysiology. In order to accurately assess ICU stay, which is often determined by other factors than the patient's condition—e.g. bed availability on the wards—“end of ICU stay” was defined as the day on which the attending physician considers the patient to be “ready for discharge”.

## insulin
[1]; IIS
  Mean 06:00 h blood glucose level when on insulin (mmol/L) (mean ± SD): 5.7 ± 1.0 mmol/L
  Patients who never exceeded 6.1 mmol/L after treatment initiation: 48%
  Patients who occasionally peaked over 8.4 mmol/L: 17%
  Patients with blood glucose levels that failed to go below 6.1 mmol/L within 48 h: 0.1%
[1]; IIS and RIS
  Consequences of hypoglycemia events: never induced serious symptoms such as hemodynamic deterioration or epilepsia
[1]; IIS, N = 765
  Mean 06:00 h blood glucose level (mmol/L) (mean ± SD): 5.8 ± 1.0 mmol/L and 5.7 ± 1.0 mmol/L
[1]; RIS
  Mean 06:00 h blood glucose level when on insulin (mmol/L) (mean ± SD): 9.6 ± 1.8 mmol/L
  Patients in whom glycemia transiently fell below 2.3 mmol/L, number: 6
[1]; RIS, N = 783
  Mean 06:00 h blood glucose level (mmol/L) (mean ± SD): 8.5 ± 1.8 mmol/L
[2]; intensive insulin group
  Long-stay ICU patients with a positive EMG for CIPNP (% of the long stayers): 39%
  Number of positive EMGs for CIPNP per patient (mean ± SD): 0.9±1.8
  Number of positive EMGs for CIPNP per patient (median): zero
  CIPNP-free time on the ICU: 2.1±1.8 weeks
[2]; intensive insulin group, 38 long-stay patients
  Long-stay ICU patients with a positive EMG for CIPNP at any time during the ICU stay, number: Fifteen
[2]; intensive vs restrictive insulin schedule, P=0.4
  ICU-mortality, difference between the two treatment groups: not detectably different
[2]; restrictive insulin group
  CIPNP-free time on the ICU: 1.1±1.2 weeks
  Long-stay ICU patients with a positive EMG for CIPNP (% of the long stayers): 67%
  Number of positive EMGs for CIPNP per patient (mean ± SD): 1.8±2.1
  Number of positive EMGs for CIPNP per patient (median): 1
[2]; restrictive insulin group, 45 long-stay patients
  Long-stay ICU patients with a positive EMG for CIPNP at any time during the ICU stay, number: 30
